# In paper PMC7614683, “A small molecule PI3Kα activator for cardioprotection and neuroregeneration” (Nature, 2023):
# Like-named read-outs stand apart in the source and are kept apart here.
# Experiments:
# Assay in all cases: SelectScreen Z-LYTE kinase activity assay (SI Table 6)
# Type in all cases: biochemical
# [1] = molecular target: T1, protein kinases of the Z-LYTE panel (Homo sapiens, UniProt O00418)
# T1 sequence (O00418 1-725): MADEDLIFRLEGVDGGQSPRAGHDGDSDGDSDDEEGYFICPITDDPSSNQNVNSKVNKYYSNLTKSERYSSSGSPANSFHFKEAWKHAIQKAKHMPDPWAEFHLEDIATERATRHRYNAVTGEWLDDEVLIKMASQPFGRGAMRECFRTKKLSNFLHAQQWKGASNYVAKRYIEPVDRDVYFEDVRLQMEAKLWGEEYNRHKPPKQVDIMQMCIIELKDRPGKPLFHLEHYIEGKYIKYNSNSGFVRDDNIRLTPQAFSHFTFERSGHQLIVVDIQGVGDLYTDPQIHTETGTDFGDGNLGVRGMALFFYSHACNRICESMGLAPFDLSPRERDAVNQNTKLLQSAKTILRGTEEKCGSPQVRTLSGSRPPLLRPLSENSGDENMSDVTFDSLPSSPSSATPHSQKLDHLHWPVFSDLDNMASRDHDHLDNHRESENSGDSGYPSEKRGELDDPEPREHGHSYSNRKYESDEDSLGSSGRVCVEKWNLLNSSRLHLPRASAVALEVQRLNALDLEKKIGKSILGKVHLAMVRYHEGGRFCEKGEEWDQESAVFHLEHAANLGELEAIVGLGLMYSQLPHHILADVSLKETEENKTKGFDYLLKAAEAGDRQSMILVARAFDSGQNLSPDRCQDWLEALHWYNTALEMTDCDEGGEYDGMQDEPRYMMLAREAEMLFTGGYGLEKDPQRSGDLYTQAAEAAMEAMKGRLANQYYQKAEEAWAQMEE
# Procedure, shortened: (§1)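 Percent effect values derive from SelectScreen Adapta, Lantha and Z-LYTE assays in which 1938 was present at 1 μM, spanning 133 protein kinases and 7 lipid kinases.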
# [2] = molecular target: protein kinases of the Z-LYTE panel (Homo sapiens, UniProt O96013)
# Procedure, shortened: as §1
# [3] = molecular target: T2, protein kinases of the Z-LYTE panel (Homo sapiens, UniProt Q12866)
# T2 sequence (Q12866 21-999): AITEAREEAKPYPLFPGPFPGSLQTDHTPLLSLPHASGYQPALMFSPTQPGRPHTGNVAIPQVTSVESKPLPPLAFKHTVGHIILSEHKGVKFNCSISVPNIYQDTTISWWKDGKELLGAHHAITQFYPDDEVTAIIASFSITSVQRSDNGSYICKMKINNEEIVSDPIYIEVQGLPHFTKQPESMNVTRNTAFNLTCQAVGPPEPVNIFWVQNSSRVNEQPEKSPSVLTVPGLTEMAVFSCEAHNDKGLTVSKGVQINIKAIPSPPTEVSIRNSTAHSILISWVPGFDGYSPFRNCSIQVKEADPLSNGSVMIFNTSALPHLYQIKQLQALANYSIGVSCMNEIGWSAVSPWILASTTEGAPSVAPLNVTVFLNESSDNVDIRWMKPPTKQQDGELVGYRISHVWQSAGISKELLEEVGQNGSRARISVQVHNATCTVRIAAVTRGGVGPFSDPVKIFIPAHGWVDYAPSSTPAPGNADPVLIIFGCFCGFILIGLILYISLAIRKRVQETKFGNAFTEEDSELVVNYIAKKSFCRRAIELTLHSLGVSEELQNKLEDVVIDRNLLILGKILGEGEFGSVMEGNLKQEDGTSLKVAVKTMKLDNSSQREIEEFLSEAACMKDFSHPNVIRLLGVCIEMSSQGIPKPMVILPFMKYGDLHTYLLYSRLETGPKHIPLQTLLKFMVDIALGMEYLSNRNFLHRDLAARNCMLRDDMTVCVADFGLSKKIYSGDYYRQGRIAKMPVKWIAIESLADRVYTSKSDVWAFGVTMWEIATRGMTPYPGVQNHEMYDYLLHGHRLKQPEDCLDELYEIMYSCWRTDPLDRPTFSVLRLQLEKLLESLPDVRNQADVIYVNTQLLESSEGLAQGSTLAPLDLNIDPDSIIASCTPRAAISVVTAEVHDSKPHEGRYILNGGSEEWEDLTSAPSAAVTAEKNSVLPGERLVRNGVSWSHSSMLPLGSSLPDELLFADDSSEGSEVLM
# Procedure, shortened: as §1
# Sequence of protein kinases of the Z-LYTE panel (Homo sapiens, UniProt O96013) (O96013 whole entry): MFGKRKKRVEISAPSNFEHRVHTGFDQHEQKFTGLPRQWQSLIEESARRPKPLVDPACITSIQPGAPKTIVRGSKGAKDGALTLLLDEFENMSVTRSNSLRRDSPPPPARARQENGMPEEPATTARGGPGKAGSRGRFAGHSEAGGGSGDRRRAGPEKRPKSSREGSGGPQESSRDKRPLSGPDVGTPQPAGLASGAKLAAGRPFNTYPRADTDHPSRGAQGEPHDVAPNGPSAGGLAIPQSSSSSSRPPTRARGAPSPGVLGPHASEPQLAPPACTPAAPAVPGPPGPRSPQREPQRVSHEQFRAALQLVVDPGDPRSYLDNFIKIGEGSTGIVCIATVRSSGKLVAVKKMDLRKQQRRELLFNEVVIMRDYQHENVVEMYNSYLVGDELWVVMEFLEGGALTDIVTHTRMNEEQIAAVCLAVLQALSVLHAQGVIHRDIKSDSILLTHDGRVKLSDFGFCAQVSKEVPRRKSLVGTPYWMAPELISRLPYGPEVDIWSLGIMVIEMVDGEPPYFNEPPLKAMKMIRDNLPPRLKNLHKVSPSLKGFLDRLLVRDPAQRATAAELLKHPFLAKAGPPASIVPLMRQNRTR
structure (smiles),measurement,setting,value
CCN1CCN(c2ccc(Nc3cc(Nc4cccc5c4N(C(C)=O)CC5)ccn3)cc2)CC1 [Compound 1938],inhibition at 1 µM,[1]; read-out: % Inhibition Point 1,-0.0213%
same,inhibition at 1 µM,[1]; read-out: % Inhibition Point 2,0.399%
same,inhibition at 1 µM,[1]; read-out: % Inhibition mean,0.189%
same,inhibition at 1 µM,[2]; read-out: % Inhibition Point 1,-3.77%
same,inhibition at 1 µM,[2]; read-out: % Inhibition Point 2,-2.13%
same,inhibition at 1 µM,[2]; read-out: % Inhibition mean,-3%
same,inhibition at 1 µM,[3]; read-out: % Inhibition Point 1,12%
same,inhibition at 1 µM,[3]; read-out: % Inhibition Point 2,9%
same,inhibition at 1 µM,[3]; read-out: % Inhibition mean,11%
